Results published in PubChem BioAssay AID844 (SRMLSC, 2007).
pEC50: −log10 of the molar value. Activity calls are given as the source filed them. The rule behind the calls is not given here.

System: MRP1 cells, doxorubicin viability shift, 10 uM compound
Test: viability protection against doxorubicin, MRP-1 line – cell-based, doxorubicin EC50 shift, dose response (AID 844)
Details: for pEC50: measured here: doxorubicin EC50 with compound

| SMILES | fold increase in Dox EC50 | pEC50 |
| --- | --- | --- |
| Brc1cc2c(cc1COc1ccc(-c3nn[nH]n3)cc1)OCO2 | 1.73 | 5.03 |
| CC1CCC/C(=C(\C#N)c2nc(-c3cc4ccccc4oc3=O)cs2)C1 (stereo not drawn) | 0.55 (inactive) | 5.53 |
| CCOC(=O)c1cc(-c2ccccc2)sc1NC(=O)C(C)Sc1nnc(C)s1 (stereo not drawn) | 0.53 (inactive) | 5.54 |
| CCCCN(C(=O)Cc1cccs1)c1nnc(-c2cccnc2)s1 | 0.86 (inactive) | 5.33 |
| CC(/C=C1\SC(=S)N(NC(=O)c2ccc(O)cc2)C1=O)=C\c1ccccc1 | 0.83 (inactive) | 5.35 |
| COc1ccccc1NC(=O)c1sc2nc(-c3ccco3)ccc2c1N | 0.85 (inactive) | 5.34 |
| O=C(Nc1nc(-c2ccccc2)cs1)c1ccc(Br)o1 | 1.41 (inactive) | 5.12 |
| Cc1cccc(-c2cc3nc(C)cc(N4CC(C)CC(C)C4)n3n2)c1 (stereo not drawn) | 0.49 (inactive) | 5.58 |
| Nn1c(SCC(=O)Nc2ccccc2F)nc2ccccc2c1=O | 1.41 (inactive) | 5.12 |
| COc1cccc(/C=N/NC(=O)Cn2nc(C)c([N+](=O)[O-])c2C)c1O | 0.12 (inactive) | 6.17 |
| Cc1cccc(CC2S/C(=N/c3ccccn3)NC2=O)c1 (stereo not drawn) | 1.15 (inactive) | 5.21 |
| Cn1c(C(=O)NCc2ccccc2)cc2oc3ccccc3c21 | 1.46 (inactive) | 5.10 |
| CC(C)Cc1nnc(NC(=O)CSc2ncn[nH]2)s1 | 0.9 (inactive) | 5.31 |
| Cc1c(NC(=O)c2ccccc2NS(=O)(=O)c2ccc(Br)cc2)c(=O)n(-c2ccccc2)n1C | 0.65 (inactive) | 5.45 |
| CCc1ccc(/C(C)=N/Nc2cc(Cl)nc(C)n2)cc1 | 0.69 (inactive) | 5.43 |
| C/C(=N\NC(=O)c1ccc(Cn2cc([N+](=O)[O-])cn2)o1)c1cccc(NC(=O)c2cccnc2)c1 | 0.73 (inactive) | 5.41 |
| Cc1ccc(-n2c(C)nnc2SCC(=O)Nc2ccccc2)cc1 | 1 (inactive) | 5.27 |
| Cc1nnc(NC(=O)C(C)Oc2ccc3c(C)cc(=O)oc3c2)s1 (stereo not drawn) | 1.29 (inactive) | 5.16 |
| COc1ccc(C2CC(c3ccccc3)=NN2C(=O)COC(=O)c2cccnc2Cl)cc1 (stereo not drawn) | 0.63 (inactive) | 5.47 |
| CCCCCCC1CC(CSc2ncn[nH]2)OC1=O (stereo not drawn) | 1.14 (inactive) | 5.21 |
| CCN(CC)S(=O)(=O)c1cccc(NC(=O)CCSc2ccc(Cl)cc2)c1 | 0.89 (inactive) | 5.32 |
| COc1ccc(C(=O)NCc2ccc3c(c2)OCO3)cc1S(=O)(=O)N(C)Cc1ccccc1 | 0.75 (inactive) | 5.39 |
| c1ccc2c(c1)Nc1nccnc1S2 | 0.12 (inactive) | 6.20 |
| CC1=C(C(=O)Nc2ccccc2C)C(c2ccc(C)o2)N2C(=O)CSC2=N1 (stereo not drawn) | 1.01 (inactive) | 5.27 |
| CCn1c(C)cc(/C=C2\NC(=O)N(Cc3ccc(Cl)cc3)C2=O)c1C | 1.14 (inactive) | 5.21 |
| C=CCc1c(C)nc(-c2ccccc2)nc1N/N=C(\C)c1ccccc1 | 0.43 (inactive) | 5.63 |
| O=C(NCc1ccccc1)C(c1ccc(O)cc1)N(C(=O)Cn1nnc(-c2cccs2)n1)c1ccc2c(c1)OCCO2 (stereo not drawn) | 0.86 (inactive) | 5.33 |

| SMILES | fold increase in Dox EC50 | pEC50 |
| --- | --- | --- |
| CCOC(=O)C1CCCN(Cc2ccc(OC)cc2OC)C1 (stereo not drawn) | 0.35 (inactive) | 5.72 |
| N#CC1=C2C=Cc3ccccc3N2CCCC1=O | 1.28 (inactive) | 5.16 |
| CCN(CC)S(=O)(=O)c1ccc2c(c1)nc(SCn1nnc3ccccc3c1=O)n2CC | 0.52 (inactive) | 5.55 |
| CCOC(=O)c1cnn(-c2ccccn2)c1N | 0.92 (inactive) | 5.31 |
| Cc1ccc(CC2SC(=Nc3ccccc3)N(c3ccccc3)C2=O)cc1 (stereo not drawn) | 1.69 | 5.04 |
| CCc1ccc(-c2csc(NC(=O)Oc3ccccc3)n2)cc1 | 1.23 (inactive) | 5.18 |
| O=C1C(Cc2cccc([N+](=O)[O-])c2)SC(=Nc2ccccc2)N1c1ccccc1 (stereo not drawn) | 0.73 (inactive) | 5.40 |
| Cc1cccc2cc(CN(Cc3cccs3)C(=S)NCc3ccco3)c(=O)[nH]c12 | 0.41 (inactive) | 5.66 |
| COc1cccc(/C=N/NC(=O)CNC(=O)C2COc3ccccc3O2)c1O (stereo not drawn) | 0.12 (inactive) | 6.20 |
| COc1ccc(/C=C/C(=O)NCc2cnn(C)c2C)cc1COc1ccc(Br)cc1 | 0.68 (inactive) | 5.43 |
| N=C(N)SCc1nc2ccccn2c1Br | 0.28 (inactive) | 5.83 |
| CCOc1ccccc1C(=O)OCC(=O)Nc1ccc(OC(F)F)cc1 | 0.93 (inactive) | 5.30 |
| Cc1ccc(CC2S/C(=C(/C#N)C(=O)N3CCOCC3)N(c3ccccc3)C2=O)cc1 (stereo not drawn) | 1.18 (inactive) | 5.20 |
| CCOC(=O)C1=C(C)N=C2SC(CC)C(=O)N2C1c1cccc(F)c1 (stereo not drawn) | 1.14 (inactive) | 5.21 |
| N#C/C(=N\Nc1ccccc1F)C(=N)N1CCCCC1 | 0.79 (inactive) | 5.37 |
| CCC(Sc1nccn1C)C(=O)Nc1nnc(C)s1 (stereo not drawn) | 1.01 (inactive) | 5.27 |
| CC(C)Cn1c2c(c(O)c(C(=O)Nc3ccc(F)cc3)c1=O)CCCC2 | 0.95 (inactive) | 5.29 |
| O=C1CC(N2CCC(O)(c3ccc(Br)cc3)CC2)C(=O)N1c1ccc(Cl)cc1 (stereo not drawn) | 1.37 (inactive) | 5.13 |
| COc1ccc(NC2=Nc3ccccc3N3C2=Nc2c(c(C)nn2-c2ccc(C)cc2)C3c2cccnc2)cc1 (stereo not drawn) | 0.6 (inactive) | 5.49 |
| N/C(=N\N=C\c1ccc2c(c1)OCO2)c1nonc1N | 0.88 (inactive) | 5.32 |
| CCOC(=O)c1ccc(N2CN=C3SCC(=O)N3C2)cc1 | 0.3 (inactive) | 5.79 |
| CC(/C=N\NC(=O)CN1CCN(S(=O)(=O)c2ccc(C)cc2)CC1)=C\c1ccccc1 | 1.26 (inactive) | 5.17 |
| Cc1cccc(C)c1N=Cc1c(O)n(-c2nccs2)c(=O)c2ccccc12 | 0.6 (inactive) | 5.49 |
| Cc1ccc(S(=O)(=O)Nc2nc3ccccc3nc2NCc2ccc3c(c2)OCO3)cc1C | 1.02 (inactive) | 5.26 |
| O=C(Cn1c(COc2ccc(Cl)cc2)nc2ccccc21)NCC(F)(F)F | 0.75 (inactive) | 5.39 |
| Cc1cc(=O)oc2c1ccc1oc(/C(=N/O)c3ccccc3)c(C)c12 | 1.3 (inactive) | 5.15 |
| Cc1nc(=O)c(-c2ccccc2)c(C)n1-c1cccc(C(=O)O)c1 | 1.26 (inactive) | 5.17 |
